What was measured:
Experiment in all cases: Broth dilution MIC
Format in all cases: cell-based
Conditions in all cases: Mueller-Hinton broth, 18 hours at 35° C.
S. marcescens GC 4077 = system: S. marcescens GC 4077
Description: (§1) The in vitro antibacterial activity of AA-896-A1, AA-896-A2, AA-896-A3, AA-896-A4, AA-896-A5, AA-896-B1, AA-896-B2, AA-896-B3, AA-896-B4, AA-896-B5, AA-896-B6, AA-896-B7, AA-896-C1, AA-896-C2, AA-896-C3, AA-896-C4, AA-896-D1, AA896-D2 and AA-896-D3 is determined against a spectrum of Gram-positive and Gram-negative bacteria by a standard broth dilution method. Serial dilution of the compounds are made in Mueller-Hinton broth and inoculated with a bacterial suspension. The lowest concentration of compound that inhibited the growth of a bacterial strain after 18 hours of incubation at 35° C. is reported as the minimal inhibitory concentration (MIC) for that strain.

P. rettgeri GC 4530 = system: P. rettgeri GC 4530
Description: as §1

P. aeruginosa GC 2214 = system: P. aeruginosa GC 2214
Description: as §1

S. aureus GC 2216 = system: S. aureus GC 2216
Description: as §1

M. morganii GC 4531 = system: M. morganii GC 4531
Description: as §1

CNS GC 4547 = system: CNS GC 4547
Description: as §1

E. coli GC 2203 = system: E. coli GC 2203
Description: as §1

P. aeruginosa GC 4532 = system: P. aeruginosa GC 4532
Description: as §1

S. aureus GC 1131 = system: S. aureus GC 1131
Description: as §1

E. coli GC 4559 = system: E. coli GC 4559
Description: as §1

E. cloacae GC 3783 = system: E. cloacae GC 3783
Description: as §1

K. pneumoniae GC 4534 = system: K. pneumoniae GC 4534
Description: as §1

S. aureus GC 4536 = system: S. aureus GC 4536
Description: as §1

CNS GC 4537 = system: CNS GC 4537
Description: as §1

E. coli GC 4560 = system: E. coli GC 4560
Description: as §1

E. faecalis GC 842 = system: E. faecalis GC 842
Description: as §1

CNS GC 4538 = system: CNS GC 4538
Description: as §1

E. faecalis GC 242 = system: E. faecalis GC 242
Description: as §1

E. faecalis GC 4555 = system: E. faecalis GC 4555
Description: as §1

E. coli GC 3226 = system: E. coli GC 3226
Description: as §1

In the case of COC1C(OC(C(NCCCNC(=O)C(NC(=O)C(NC(=O)NC(C(=O)O)C(C)C)C2CCNC(=N)N2)C(O)C(C)C)C(=O)O)C2OC(n3ccc(=O)[nH]c3=O)C(O)C2O)OC(CN)C1O [AA-896-C1, 5-O-[5-Amino-5-deoxy-2-O-methyl-β-D-ribofuranosyl]-6-[[3-[2-[2-[[(1-carboxy-2-methyl-propyl)carbamoyl]amino]-2-(hexahydro-2-iminopyrimidin-4-yl)acetamido]-3-hydroxy-4-methylpentanamido]propyl]amino]-1,6-dideoxy-1-(3,4-dihydro-2,4-dioxopyrimidin-1(2H)-yl)-β-D-heptofuranuronic acid], the “Antimicrobial Activity (MIC)” value (S. marcescens GC 4077) is reported as over 32 µg/mL, the “Antimicrobial Activity (MIC)” value (P. rettgeri GC 4530) is reported as over 32 µg/mL and the “Antimicrobial Activity (MIC)” value (P. aeruginosa GC 2214) is reported as 32 µg/mL. For the same molecule, the “Antimicrobial Activity (MIC)” value (S. aureus GC 2216) was over 32 µg/mL, the “Antimicrobial Activity (MIC)” value (M. morganii GC 4531) was over 32 µg/mL and the “Antimicrobial Activity (MIC)” value (CNS GC 4547) was over 32 µg/mL. For the same molecule, the “Antimicrobial Activity (MIC)” value (E. coli GC 2203) was 32 µg/mL, the “Antimicrobial Activity (MIC)” value (P. aeruginosa GC 4532) was over 32 µg/mL and the “Antimicrobial Activity (MIC)” value (S. aureus GC 1131) was over 32 µg/mL. The “Antimicrobial Activity (MIC)” value (E. coli GC 4559) was over 32 µg/mL, the “Antimicrobial Activity (MIC)” value (E. cloacae GC 3783) was 32 µg/mL and the “Antimicrobial Activity (MIC)” value (K. pneumoniae GC 4534) was over 32 µg/mL. The “Antimicrobial Activity (MIC)” value (S. aureus GC 4536) was over 32 µg/mL, the “Antimicrobial Activity (MIC)” value (CNS GC 4537) was over 32 µg/mL and the “Antimicrobial Activity (MIC)” value (E. coli GC 4560) was 1 µg/mL. For the same molecule, the “Antimicrobial Activity (MIC)” value (E. faecalis GC 842) was over 32 µg/mL, the “Antimicrobial Activity (MIC)” value (CNS GC 4538) was over 32 µg/mL and the “Antimicrobial Activity (MIC)” value (E. faecalis GC 242) was over 32 µg/mL. The “Antimicrobial Activity (MIC)” value (E. faecalis GC 4555) was over 32 µg/mL and the “Antimicrobial Activity (MIC)” value (E. coli GC 3226) was 32 µg/mL.
In the case of “5-O-[5-Amino-5-deoxy-β-D-ribofuranosyl]-6-[[3-[3-[[13-(carbamimidoylhydroxyamino)-tridecanoyl]oxy]-2-[2-[[(1-carboxy-2-methylpropyl)carbamoyl]amino]-2-(hexahydro-2-iminopyrimidin-4-yl)acetamido]-4-methylpentanamido]propyl]amino]-1,6-dideoxy-1-(3,4-dihydro-2,4-dioxopyrimidin-1(2H)-yl)-β-D-heptofuranuronic acid [AA-896-A4]”, the “Antimicrobial Activity (MIC)” value (S. marcescens GC 4077) is reported as over 32 µg/mL, the “Antimicrobial Activity (MIC)” value (P. rettgeri GC 4530) is reported as over 32 µg/mL and the “Antimicrobial Activity (MIC)” value (P. aeruginosa GC 2214) is reported as 32 µg/mL. For the same molecule, the “Antimicrobial Activity (MIC)” value (S. aureus GC 2216) was 4 µg/mL, the “Antimicrobial Activity (MIC)” value (M. morganii GC 4531) was over 32 µg/mL and the “Antimicrobial Activity (MIC)” value (CNS GC 4547) was 8 µg/mL. The “Antimicrobial Activity (MIC)” value (E. coli GC 2203) was 16 µg/mL, the “Antimicrobial Activity (MIC)” value (P. aeruginosa GC 4532) was 32 µg/mL and the “Antimicrobial Activity (MIC)” value (S. aureus GC 1131) was 8 µg/mL. The “Antimicrobial Activity (MIC)” value (E. coli GC 4559) was 32 µg/mL, the “Antimicrobial Activity (MIC)” value (E. cloacae GC 3783) was 1 µg/mL and the “Antimicrobial Activity (MIC)” value (K. pneumoniae GC 4534) was over 32 µg/mL. For the same molecule, the “Antimicrobial Activity (MIC)” value (S. aureus GC 4536) was 8 µg/mL, the “Antimicrobial Activity (MIC)” value (CNS GC 4537) was 4 µg/mL and the “Antimicrobial Activity (MIC)” value (E. coli GC 4560) was 0.12 µg/mL. The “Antimicrobial Activity (MIC)” value (E. faecalis GC 842) was 32 µg/mL, the “Antimicrobial Activity (MIC)” value (CNS GC 4538) was 2 µg/mL and the “Antimicrobial Activity (MIC)” value (E. faecalis GC 242) was 32 µg/mL. For the same molecule, the “Antimicrobial Activity (MIC)” value (E. faecalis GC 4555) was 32 µg/mL and the “Antimicrobial Activity (MIC)” value (E. coli GC 3226) was 8 µg/mL.

— patent publication US7078195B2, “Antibiotics AA-896” (Wyeth Holdings Corporation, priority 2001, dated 2006)
